Measurements taken from patent US9598384B2, “3-(2-amino-ethyl)-alkylidene)-thiazolidine-2,4-dione and 1-(2-amino-ethyl)-alkylidene-1,3-dihydro-indol-2-one derivatives as selective sphingosine kinase 2 inhibitors” (VIRGINIA COMMONWEALTH UNIVERSITY, priority 2012, dated 2017).
Several values for one entry are separate records, joined by “and”; a condition that tells them apart may be missing. Identical values can stand only once. Entries after “also recorded” stand apart in the source; their conditions may differ.

How the values were obtained:
[1] = tested on: U937 cells; assay: Cell apoptosis assay, annexin V/PI flow cytometry; format: cell-based, human
Description: Apoptosis was measured by flow cytometry using annexin V/propidium iodide (PI) as staining reagent. […] The cells were then incubated with annexin V-fluorescein isothiocyanate (FITC) (BD PharMingen, San Diego, Calif.) and 5 μg/mL propidium iodide (PI), and incubated for 15 minutes at room temperature in the dark per the manufacturer's instructions. The samples were analyzed by flow cytometry using a Becton Dickinson FACScan (Becton Dickinson, San Jose, Calif.) within 1 hr to determine the percentage of cells displaying annexin V staining (early apoptosis) or both annexin V and PI staining (late apoptosis).

[2] = tested on: U937 xenograft; assay: U937 xenografts in nude mice, oral administration
Description: BALB/c-nu mice (n=7) with palpable U937 xenograft were treated daily with vehicle, tamibarotene (20 mg/kg), or K145 (50 mg/kg) for 15 days by oral gavage. After treatment, animals were sacrificed and tumors were removed, weighed and images were taken. […] Data are expressed as mean value±SEM. *P<0.05 compared to control group.
In this experiment, K145 was given at 50 mg/kg by oral gavage daily for 15 days and tumor volume and animal weights were measured every other day. Again, tamibarotene (20 mg/kg) was used as positive control.

[3] = tested on: U937 cells; assay: Uptake of K145 by U937 cells, ESI-MS/MS; format: in vitro ADME, human; details: 3 h, concentration dependent
Description: (§1) FIG. 16A-E. K145 accumulates and suppresses the S1P level. A and B) U937 cells were treated with K145 at the indicated concentrations for 3 h and the levels of K145 and S1P were measured by ESI-MS/MS. C) HEK293 cells were treated with K145 (10 μM) for 2 h. Lipids were extracted and different chain length species of ceramide were determined by LC-ESI-MS/MS. Numbers indicate chain length followed by the number of double bonds in the fatty acid. Data are averages of triplicate determinations and are expressed as pmol lipid/10^6 cells. D) U937 cells were treated with or without K145 (10 μM) for 3 h and levels of C1P species were determined by ESI-MS/MS. E) U937 cells were treated with FTY720 (1 μM) in the absence or presence of indicated K145 for 3 h, then FTY720-P was measured by ESI-MS/MS. *P<0.05 compared to control.
Next we examined whether K145 affects cellular levels of S1P. […] Therefore, we further characterized K145 in U937 cells. […] This might be due to the fact that many enzymes such as SphK1, SphK2, S1P lyase, and S1P phosphatise, not just SphK2, are involved in the regulation of cellular S1P. […] To further confirm its SphK2 selectivity, we then tested the effects of K145 on the phosphorylation of FTY720, a SphK2 specific substrate.

[4] = tested on: human leukemia U937 cells; assay: Cell viability assay in human leukemia U937 cells; format: cell-based
Description: Cells were cultured at a density of 5×10^4 (U937) or 1×10^4 (PC-3, DU145, M12, HT29) cells per well in flat bottomed 96-well plates and treated with various concentrations of test compound at 37° C. (5% CO2). After 24 h, 20 μL of CellTiter 96® Aqueous One Solution Reagent (Promega, Madison, Wis.) was added to each well according to the manufacturer's instructions. After 1 hour, the cell viability was determined by measuring the absorbance at 490 nm using a micro-plate reader.

[5] = biological target: T1, SphK2 (Homo sapiens, UniProt Q9NRA0); assay: Phosphorylation of FTY720 (SphK2 specific substrate) in U937 cells; format: cell-based; design: U937 cells were treated with FTY720 (1 μM) in the absence or presence of indicated K145 for 3 h; endogenous in cells; host or cells: U937; details: FTY720 1 μM, 3 h
T1 sequence (Q9NRA0 1-654): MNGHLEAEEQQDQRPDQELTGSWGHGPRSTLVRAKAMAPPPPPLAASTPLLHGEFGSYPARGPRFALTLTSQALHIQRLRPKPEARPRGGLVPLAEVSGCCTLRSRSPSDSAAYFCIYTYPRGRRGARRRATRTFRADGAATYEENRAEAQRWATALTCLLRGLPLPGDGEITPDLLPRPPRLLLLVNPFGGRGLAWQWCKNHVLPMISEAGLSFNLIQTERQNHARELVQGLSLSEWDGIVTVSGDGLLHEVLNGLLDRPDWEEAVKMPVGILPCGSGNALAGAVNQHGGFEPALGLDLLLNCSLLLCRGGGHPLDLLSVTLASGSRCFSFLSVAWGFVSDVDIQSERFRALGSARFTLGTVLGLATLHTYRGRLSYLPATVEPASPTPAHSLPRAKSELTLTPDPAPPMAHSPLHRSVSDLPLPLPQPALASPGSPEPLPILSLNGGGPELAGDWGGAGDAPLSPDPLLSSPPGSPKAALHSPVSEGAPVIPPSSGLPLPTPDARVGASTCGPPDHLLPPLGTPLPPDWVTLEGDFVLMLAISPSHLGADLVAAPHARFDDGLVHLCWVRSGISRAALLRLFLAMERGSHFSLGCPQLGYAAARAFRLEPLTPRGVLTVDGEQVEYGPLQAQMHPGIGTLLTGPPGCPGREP

[6] = tested on: ceramide; assay: Ceramide species in HEK293 cells by LC-ESI-MS/MS; format: cell-based; details: 10 μM, 2 h
Description: as §1

[7] = biological target: T1, SphK2; assay: SphK2 activity assay (sphingosine substrate, with kinetic study); format: biochemical
Description: A) SphK1 and SphK2 activities were measured with 5 μM sphingosine in the absence or presence of the indicated concentrations of K145 or 10 μM DMS. […] Data are expressed as percentage of control activity averaged from 2 independent experiments. Data are expressed as mean value±SEM.
SphK2 was incubated with indicated compounds at 10 μM, then the activity of SphK2 was determined. The data shown here is a relative activity of SphK2 compared to control (no inhibitor, column labeled Sph in the Figure). […] “A” and “B” refer to different batches of a compound.
SphK2 was incubated with indicated compounds at 10 μM, then the activity of SphK2 was determined. The data shown here is a relative activity of SphK2 compared to control (no inhibitor).

[8] = tested on: Raf/MEK/ERK and PI3K/Akt signaling pathways; assay: Western blot analysis of ERK and Akt phosphorylation; format: cell-based
Description: Cells (5×10^5 per ml) were treated with various concentrations of test compound at 37° C. (5% CO2) for 3 hrs, then stimulated with TPA at a final concentration of 200 nM for 20 min. Samples from whole-cell pellets were prepared and 30 μg protein for each condition was subjected to SDS-PAGE, transferred onto a PVDF membrane, and blocked with 5% fat-free milk for 30 min. The membrane is probed with primary antibodies overnight at 4° C. followed by incubation with horseradish peroxidase-labeled anti-mouse IgG (1:5000, BD Bioscience). The immunoreactive bands are detected by chemilluminescence methods (Pierce) and visualized on Kodak Omat film. The following primary antibodies were used: phospho-p44/42 MAPK (ERK1/2, Thr202/Tyr204), p44/42 MAPK, phospho-p90RSK (Thr359/Ser363), RSK1/RSK2/RSK3 (Cell Signaling). Blots were reprobed with antibodies against α-tubulin to ensure equal loading and transfer of proteins.

In the case of `CCCCOc1ccc(CC/C=C2\SC(=O)N(CCN)C2=O)cc1` [K145, 3-(2-aminoethyl)-5-[3-(4-butoxyl-phenyl)-propylidene]-thiazolidine-2,4-dione], the “induction of apoptosis in U937 cells” value ([1]; 5 μM, after 18 hrs) is reported as “significantly induced apoptosis”, the “induction of apoptosis in U937 cells” value ([1]; 10 μM, 4 hrs treatment) is reported as “significantly induced apoptosis” and the “induction of apoptosis in U937 cells” value ([1]; varying concentrations and intervals) is reported as “significantly and dose-dependently induced apoptosis”. For the same compound, the oral availability ([2]; 50 mg/kg oral gavage) was “orally available”, the toxicity ([2]; 50 mg/kg oral, 15 days) was “no apparent toxicity was observed” and the body weights ([2]; 50 mg/kg oral, beginning of the treatment, recovered later) was “slight decrease of body weights”. The “TGI (tumor growth inhibition)” value ([2]; oral gavage daily 15 days, K145 50 mg/kg, tamibarotene 20 mg/kg) was 51.25%, the “uptake by U937 cells” value [3] was “readily taken up” and the “IC50 for proliferation of tested cancer cells (in words)” value ([4]; FIG. 8, U937 cells, 24 h) was “single digit micromolar”. For the same compound, the “inhibition of growth/proliferation of U937 cells (in words)” value ([4]; human leukemia U937 cells) was “dose-dependently inhibits the growth”, the “phosphorylation of FTY720” value [5] was “inhibited” and the ceramide levels [6] was “without significant effects”. For the same compound, the Ki ([7]; Lineweaver-Burk analysis, increasing concentrations of sphingosine) was 6.4 ± 0.7 µM, the IC50 ([7]; recombinant SphK2, 5 μM sphingosine) was 5 µM and 4.3 µM and the “inhibition of SphK2 activity (in words)” value ([7]; relative activity vs no inhibitor, compounds at 10 μM (FIGS. 1, 3, 5)) was “significantly inhibit SphK2; also recorded: inhibits SphK2”. The “type of SphK2 inhibition” value ([7]; with the substrate sphingosine) was “competitive inhibitor”, the “phosphorylation of both ERK and Akt” value ([8]; 3 μM, 3 hrs treatment, then TPA stimulation) was “significantly inhibited” and the “inhibition of Raf/MEK/ERK and PI3K/Akt signaling pathways” value ([8]; Western blot, FIGS. 9 and 10) was “inhibits”.
